Source: patent US20260266848A1, “COMPOSITIONS AND METHODS FOR DIAGNOSING AND TREATING DYSTONIA” (Duke University, priority 2023, published 2026)

Legend:
[1] = test system: DYT1 patient plasma derived EVs; assay: Plasma-derived EV proteomics (ExoQuick ULTRA, DIA LC/MS/MS), DYT1 vs Healthy Controls; parameters: species or system human; details: Hs. Plasma EVs (DYT1/WT); significance of genotype difference
Method: Data was obtained for extracellular vesicles using previously acquired samples. The ExoQuick® ULTRA EV Isolation System was used to fractionate and enrich EVs from plasma. Isolated plasma EV samples were then submitted to proteomic analysis by the Duke Proteomics and Metabolomics Core Facility (DPMCF). At the DPMCF, quantitative (LC/MS/MS) was performed on 500 ng of each sample, using an EvoSep One UPLC system coupled to a Thermo Orbitrap Astral high-resolution accurate mass tandem mass spectrometer (Thermo). Briefly, the sample was eluted directly from an Evotip which was subjected to a low organic wash and then subjected to an analytical separation using a 1.7 μm EvoSep 150 um ID×15 cm endurance (EveoSep) column running an SPD30 gradient from approximately 5 to 30% acetonitrile with 0.1% formic acid with a column temperature of 50 C. Data collection on the Orbitrap Astral mass spectrometer was performed in a data-independent acquisition (DIA) mode of acquisition with a r=240,000 (@m/z 200) full MS scan from m/z 380-980 with a target AGC value of 4e5 ions. Fixed DIA, windows of 4 m/z from m/z 380 to 980 DIA MS/MS scans were acquired in the Astral with a target AGC value of 5e4 and a max fill time of 6 ms. HCD collision energy setting of 27% was used for all MS2 scans.

[2] = test system: DYT1 patient plasma; assay: Whole plasma metabolomics (Biocrates MxP Quant 500 Kit), DYT1 vs Healthy Controls; details: DYT1-Dystonia vs Healthy Control
Description: Duke Proteomics and Metabolomics Core Facility (DPMCF) also analyzed metabolites from 41 plasma samples using the Biocrates MxP Quant 500 Kit. Plasma from 14 subjects with DYT1 and 27 Healthy Controls was utilized.

[3] = test system: DYT-TOR1A MEF EVs; assay: Quantitative LC-MS/MS proteomics of EVs from drug-treated DYT-TOR1A MEF cultures (ritonavir, salubrinal); assay type: cell-based, mouse; parameters: key to RTV Corrective Direction / RTV Corrective Direction, Grwd1 / RTV Corrective Direction, Srrm2 / RTV Corrective Direction, Rbm17 / RTV Corrective Direction, Dcaf8 / RTV Corrective Direction, Edil3 / RTV Corrective Direction, Timp3 / RTV Corrective Direction, Heatr3 / RTV Corrective Direction, Brd4 / RTV Corrective Direction, P3h4 / RTV Corrective Direction, Pacsin3 / RTV Corrective Direction, Naa50 / RTV Corrective Direction, Lpar6 / RTV Corrective Direction, Ndrg1 / RTV Corrective Direction, Kntc1 / RTV Corrective Direction, Cdk11b / RTV Corrective Direction, Sumo1 / RTV Corrective Direction, Lsm4 / RTV Corrective Direction, Hmga2 / RTV Corrective Direction, Cstf1 / RTV Corrective Direction, Tes / RTV Corrective Direction, Sbno1 / RTV Corrective Direction, Unc119b / RTV Corrective Direction, Cfdp1 / RTV Corrective Direction, Sec61b: YES = protein abundance effect opposite to DYT/WT; details: EV protein abundance; for RTV Corrective Direction: DYT + RTV (ritonavir) vs DYT, direction compared with DYT/WT; for DYT + RTV/DYT Cohen's d: ritonavir (RTV)-treated DYT vs DYT
[4] = test system: WT MEF EVs; assay: Quantitative LC-MS/MS proteomics of EVs from ISRIB-treated WT MEF cultures; assay type: cell-based, mouse; parameters: key to ISRIB and DYT Parallel Direction / ISRIB and DYT Parallel Direction, Ctdsp1 / ISRIB and DYT Parallel Direction, Pcdh19 / ISRIB and DYT Parallel Direction, Tspan7 / ISRIB and DYT Parallel Direction, Myo1e / ISRIB and DYT Parallel Direction, Plpp3 / ISRIB and DYT Parallel Direction, Sh3bp4 / ISRIB and DYT Parallel Direction, Dnajc7 / ISRIB and DYT Parallel Direction, Drg1 / ISRIB and DYT Parallel Direction, Maea: YES = protein abundance effect similar to DYT/WT; details: EV protein abundance; for WT + ISRIB/WT Cohen's d: ISRIB-treated WT vs WT; for ISRIB and DYT Parallel Direction: WT + ISRIB vs WT, direction compared with DYT/WT

Row | Compound | -LogP [1] | -LogP [2] | RTV Corrective Direction [3] | DYT + RTV/DYT Cohen's d [3] | WT + ISRIB/WT Cohen's d [4] | ISRIB and DYT Parallel Direction [4]
1 | CRYAB | 1.577 |  |  |  |  | 
2 | FLNA | 1.743 |  |  |  |  | 
3 | N[C@@H](CSSC[C@H](N)C(=O)O)C(=O)O [Cystine_Aminoacids Related] |  | 2.546 |  |  |  | 
4 | Cc1ccc(OS(=O)(=O)O)cc1 [p-Cresol-SO4_Cresols] |  | 1.433 |  |  |  | 
5 | TARDBP | 1.352 |  |  |  |  | 
6 | Col10a1 |  |  | YES | −3.41 | 0.36 | YES
7 | Usp7 |  |  | YES | 6.89 | −1.90 | YES
8 | Ptprs |  |  | YES | −5.40 | 0.13 | YES
9 | Cnot1 |  |  | YES | 5.54 | −2.56 | YES
10 | MAPK3 | 1.682 |  |  |  |  | 
11 | Ltbp2 |  |  | YES | −5.72 | 0.70 | YES
12 | Rab1b |  |  | YES | 1.15 | −2.54 | YES
13 | Tardbp |  |  | YES | 0.80 | 0.28 | YES
14 | Prpf8 |  |  | YES | 7.95 | −0.01 | YES
15 | Nes |  |  |  | 0.37 | 2.29 | YES
16 | Hdgf |  |  | YES | −0.15 | 1.97 | YES
17 | Cul3 |  |  | YES | 2.36 | −0.66 | YES
18 | N[C@@H](CC(=O)O)C(=O)O [Asp_Aminoacids] |  | 1.99 |  |  |  | 
19 | PCMT1 | 1.506 |  |  |  |  | 
20 | Idh2 |  |  | YES | 23.61 | −2.01 | YES
21 | Oxsr1 |  |  | YES | 5.88 | −0.72 | YES
22 | RHOA | 1.674 |  |  |  |  | 
23 | Cope |  |  | YES | 7.24 | −1.30 | YES
24 | CCCCCCCCCCCCCCCCCCCCCCCCCC(=O)OC[C@@H](O)COP(=O)([O-])OCC[N+](C)(C)C [lysoPC a C26:0_Glycerophospholipids] |  | 2.027 |  |  |  | 

Row | Compound | -LogP [1] | -LogP [2] | RTV Corrective Direction [3] | DYT + RTV/DYT Cohen's d [3] | WT + ISRIB/WT Cohen's d [4] | ISRIB and DYT Parallel Direction [4]
25 | NCCCCC(=O)O [5-AVA_Aminoacids Related] |  | 2.862 |  |  |  | 
26 | DLST | 1.928 |  |  |  |  | 
27 | Gmppb |  |  | YES | 5.38 | −2.41 | YES
28 | TLN2 | 1.45 |  |  |  |  | 
29 | Sptan1 |  |  | YES | 3.22 | −0.40 | YES
30 | Otub1 |  |  | YES | 5.84 | −2.26 | YES
31 | Huwe1 |  |  | YES | 5.04 | −3.93 | YES
32 | PSMC5 | 1.615 |  |  |  |  | 
33 | MYH9 | 1.313 |  |  |  |  | 
34 | Spp1 |  |  | YES | −6.93 | 2.67 | YES
35 | CCCCCCCCCCCCCCCCCCCCCCCCCCCC(=O)OC[C@@H](O)COP(=O)([O-])OCC[N+](C)(C)C [lysoPC a C28:0_Glycerophospholipids] |  | 1.585 |  |  |  | 
36 | TGFB2 | 2.018 |  |  |  |  | 
37 | PSME4 | 1.398 |  |  |  |  | 
38 | Akr1b1 |  |  | YES | 5.32 | −0.22 | YES
39 | Pgp |  |  | YES | 2.28 | −0.86 | YES
40 | Svep1 |  |  | YES | −0.40 | −0.50 | 
41 | Hmcn1 |  |  | YES | −3.58 | −2.25 | 
42 | Myo18a |  |  | YES | 4.91 | 2.27 | 
43 | TLN1 | 1.51 |  |  |  |  | 
44 | Sar1a |  |  | YES | 4.40 | −1.23 | YES
45 | Sptbn1 |  |  | YES | 3.27 | −0.82 | YES
46 | PI4KA | 2.66 |  |  |  |  | 
47 | Dhx9 |  |  | YES | 6.23 | −1.27 | YES
